Key:
Caspase-1 [1] = biological target: T1, Caspase-1 (Homo sapiens, UniProt P29466); test: Specificity of the probe towards caspase-1; format: biochemical; settings: summary of biological assays
T1 sequence (P29466 120-297 limits assumed): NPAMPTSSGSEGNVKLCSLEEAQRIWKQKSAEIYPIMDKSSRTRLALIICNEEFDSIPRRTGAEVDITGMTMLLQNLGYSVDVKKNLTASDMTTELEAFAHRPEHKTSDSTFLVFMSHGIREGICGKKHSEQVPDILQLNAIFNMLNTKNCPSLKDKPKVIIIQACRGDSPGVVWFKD
T1 sequence (P29466 317-404 limits assumed): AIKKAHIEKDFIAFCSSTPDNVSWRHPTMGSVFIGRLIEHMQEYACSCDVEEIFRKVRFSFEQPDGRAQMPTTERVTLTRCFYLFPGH
Description: The E/S ratio was 1/1000, 25 cycles: 1 min. intervals. • Figures 4A-C: show the in vitro cleavage of 10 µM probe VI in the presence of 10 nM caspase-1. […] The E/S ratio was 1/1000, 25 cycles: 1 min. intervals. • Figure 5: Cellular assay with Probe III; PMA=Phorbol-12-myristate-13-acetate; LPS=Lipopolysaccharide; zVAD=carbobenzoxy-valyl-alanyl-asparty-[O-methyl]-fluoromethylketone • Figure 6A-E: Kinetic characterization of probes II, VI, V, IV, and VII. • Figure 7: Cell permeability assay.

Caspase-1 [2] = biological target: T1, Caspase-1; test: In vitro cleavage of the probe by caspase-1 (fluorescence / FRET change); format: biochemical; settings: for in vitro cleavage: 10 µM probe, 10 nM caspase-1, E/S ratio 1/1000, 25 cycles: 1 min. intervals
Description: The E/S ratio was 1/1000, 25 cycles: 1 min. intervals. • Figure 5: Cellular assay with Probe III; PMA=Phorbol-12-myristate-13-acetate; LPS=Lipopolysaccharide; zVAD=carbobenzoxy-valyl-alanyl-asparty-[O-methyl]-fluoromethylketone • Figure 6A-E: Kinetic characterization of probes II, VI, V, IV, and VII. • Figure 7: Cell permeability assay.

[3] = Cellular toxicity (summary statement); format: cell-based; settings: summary of biological assays

Description for THP-1 cells: THP-1 cells were differentiated with PMA in 4-well glass chambers for 48 hours. 2 hours before the assay zVAD-fmk was added to negative controls. Probes were then added to the cells in 5 µM final concentration and the probe uptake was studied by fluorescence microscopy.

Row | Cellular entry (time) (THP-1 cells) | Structure (SMILES) | specificity (Caspase-1 [1]) | in vitro cleavage (Caspase-1 [2]) | FRET change (Caspase-1 [2]; Figure 1A, cleavage by caspase-1) | change of fluorescence intensity in response to cleavage by caspase-1 (Caspase-1 [2]; Figure 1A, dependence on enzyme dose) | FRET change (concentration dependence) (Caspase-1 [2]; summary of biological assays) | Cell permeability (THP-1 cells) | toxicity [3]
1 |  | CCN(CC)c1ccc2cc(C(=O)NNC(=O)[C@H](CC(=O)O)NC(=O)[C@@H]3CCCN4C(=O)CC[C@H](NC(=O)c5cc6ccc(OC)cc6oc5=O)C(=O)N34)c(=O)oc2c1 [Probe III] | - Superiorly specific | cleaved very efficiently | about 10 fold | enzyme dose-dependent manner | - Concentration dependent FRET change | - Cell permeability | - No sign of toxicity
2 | - Cellular entry within 5-7 min. | CCCCCCCCN(CCCCCCCC)c1ccc2c(COC(=O)CCCC(=O)NNC(=O)[C@H](CC(=O)O)NC(=O)[C@@H]3CCCN4C(=O)CC[C@H](NC(=O)c5cc6ccc(OC)cc6oc5=O)C(=O)N34)cc(=O)oc2c1 [Probe I] |  |  |  |  |  |  | 
3 |  | CCN(CC)c1ccc2cc(C(=O)NCC(=O)NCCCCCCCCNC(=O)[C@H](CC(=O)O)NC(=O)[C@@H]3CCCN4C(=O)CC[C@H](NC(=O)c5cc6ccc(OC)cc6oc5=O)C(=O)N34)c(=O)oc2c1 [Probe VI] |  | cleaved very efficiently |  |  |  |  | 
